Laboratory results from US20240166658A1, “PORPHYRIN DERIVATIVES AND USES THEREOF” (University of Tasmania, priority 2021, published 2024).

How the values were obtained:
[1] = Preliminary binding study of urea linked host, UV-Vis; details: dichloromethane
Text: However, these colorimetric changes were weaker than that observed with the amide equivalent, likely due to the formation of an insoluble precipitate upon binding. Binding of the urea linked porphyrin host with PFOA and PFOS was also confirmed by ^19F NMR spectra (FIG. 7).

Aqueous extraction tests = details: PFOA 5.5 × 10^−4 M in water (~228 ppm), volume 1:1
Protocol: Aqueous solutions of PFOA were prepared and combined with an organic phase of sensor molecule (9) in dichloromethane. Colour change observations at various sensor concentrations are described in Table 12.

[2] = Rodea-Palomares et al., 2012; cited from earlier work
[3] = UV-Vis host-guest titration, association constant; type: binding; details: short, medium and long chain sensor molecules with PFOA
Protocol: Path length of the quartz cell was 1 cm. For UV-vis titrations, a stock solution of host was prepared (2.2×10^−3 M) in dichloromethane (DCM) and serially diluted to the required concentrations. Working solutions of tetrabutylammonium (TBA) anion salts or guest molecules were prepared in the same manner Host−guest titrations used solutions of guest prepared in the working concentration of host solution, according to the procedure of Thordarson, 2011.
UV-vis spectroscopic host−guest titrations were performed in accordance with the methodologies of Thordarson, 2011. Solutions of host in dichloromethane were prepared. Solutions of guest were then prepared in the host solution. Aliquots of guest in host solution were added to host solution and sequentially analysed until a known molar equivalent of guest was added. The amount of guest added per aliquot was ascertained by a preliminary screening experiment; strong association constants required smaller molar equivalents so more information could be collected. […] The inverse is true for weaker binding interactions. Molar equivalents between 0.1-5 typically provided adequate information for modelling. The data was then used to simulate binding isotherms using www.supramolecular.org (Hibbert and Thordarson, 2016). The data was fitted to 1:1, 1:2 and 2:1 equilibria making no assumptions about the cooperativity of the binding interactions and modelled using different algorithms. These experiments mainly used the Nelder-Mead (Simplex) method.
UV-Vis spectroscopy binding studies were used to determine the association constant for the host (9)−PFOA complex.
A host solution of host (9) in dichloromethane was monitored using UV-Vis analysis as 0.5-10 equivalents of each PFAS was added. […] The data was processed using Bindfit isotherm simulators using both Nelder-Mead and L-BFGS-B methods (Thordarson, 2011).
To highlight any potential binding preferences across the PFCAs from the host molecules, triplicates of host−guest addition titrations were performed using host (9) and the TBA salts of the nine different deprotonated PFCAs.

[4] = PFCA guest response screening (RGB analysis, UV-Vis)
Protocol: A Puluz® 20 cm portable light tent with moderate and dispersed white LED lighting was used to photograph samples using an iPhone 6S plus camera on a fixed tripod. The automatic flash settings were disabled so there was no reflective interference on the sample vials. Samples that were being directly compared were photographed together to ensure lighting conditions and settings were consistent. The photographs were analysed using ImageJ software according to the procedure of Gallagher, 2014b. Multiple RGB values were chosen from areas of each sample at random to provide an “average” RGB value (Menesatti et al., 2012; Gallagher, 2014a; Phuangsaijai et al., 2021). Those RGB values were used to produce an artificial colour tile for visual comparison, or parameterized for modelling.
To quantify a colour difference, RGB values were transformed within the CIELab colour space. The difference, expressed as ΔE, was determined by measuring the relative distance between two colours. The numeric ΔE value can be used to predict how the two colours are perceived by a standard observer; a ΔE>2 is considered the minimum value to achieve a “just noticeable difference” (JND) (Table 1), which is the smallest difference required for an untrained observer to be able to determine two colours as being different (Castillo et al., 2021).
(§1) Experiments were performed at concentrations that could be monitored by the naked eye for practical sensing of PFAS in the field. Complexes of hosts (9), (11) and (12) were formed with the nine different perfluorocarboxylic acids (PFCAs) shown in Table 2 above and the colours of each host−PFCA complex were photographed in a lightbox and analysed using ImageJ software RGB analysis. Pixels of the solution were chosen at random to provide an RGB value. Multiple RGB values were recorded for each host−PFCA solution, and an average colour can be produced. From those values an RGB parameter was used to give a response value for modelling (Tahir et al., 2016).
(§2) After preliminary screenings, UV-Vis spectra were collected before and after the addition of 1 molar equivalent of each PFCA for each host, and the degree of complexation was noted by shifts in the Soret bands and formation of a peak at ca. 650 nm. To eliminate dilution effects, PFCA guest solutions were prepared in the equivalent concentration of host. If there was a notable host−guest interaction for a particular PFCA, the host−guest binding was investigated with more rigorous UV-Vis experiments, binding studies, and further colour analyses. Throughout these investigations, PFOA was considered the “average” PFCA both because of its position in the range of PFCA sizes and because its prevalence is often an indication of broader PFAS contamination. In any experiment where binding was further investigated for a particular PFCA, it was typically replicated with PFOA for comparison.

[5] = PFCA guest response across the nine PFCAs (UV-Vis, RGB, one-way ANOVA variance); details: dichloromethane
Protocol: as §1, §2
One-way factorial ANOVA was used to examine the dependence (or independence) of two or more factors affecting the dependent variable concurrently, in the present case the change in absorption, or the change in RGB response across the tested PFCAs, or across the different hosts. This analysis was used to determine the variance in the responses of each host across the different PFCAs. […]

[6] = Colorimetric calibration chart, RGB response to known PFOA concentrations; details: PFOA 0.7 ppm, dichloromethane
Protocol: The host molecules were combined with known concentrations of PFOA to provide RGB colour responses, which were used to create a colorimetric calibration chart that could be trialled as an indicator for estimating the total concentration of a range of any PFCAs. Solutions of each host molecule (1.00×10^−5 M) were prepared in dichloromethane. Solutions of PFOA in dichloromethane were prepared across a range of concentrations (0→16 ppm, 4.00×10^−5 M). Each host (2 mL) was combined with each PFOA concentration (1 mL, final concentration 0→1.33×10^−5 M) and photographed under equivalent lighting conditions. The average colour of each solution was then found using ImageJ RGB analysis, and a colour chart was produced.
For this reason, parametrization of the RGB values can be useful for interpreting results. The RGB response parameter can be calculated using the RGB values of the “blank” host solution (Šafranko et al., 2019) and the effective intensities of the individual RGB values of a sample (Tahir et al., 2016):
Here, H, indicates the values for the host solution, and S, indicates the response for a sample containing a PFCA, so that ΔR, ΔG, and ΔB give the colour differences. The RGB parameter is the response due to the relative difference in the RGB intensities:
The RGB values collected for each host with a range of known concentrations of PFOA in dichloromethane were parameterized and used to determine a relationship between concentration of analyte and RGB response values. […] The relationship between RGB response values and concentrations of PFOA could now be tested for accuracy in determining the concentration of any PFCA.

[7] = 1H NMR titration with GenX in CDCl3; type: binding; details: host 6.85×10^−4 M in CDCl3, 20 μL aliquots of guest

O=C(NC(=O)C(F)(F)C(F)(F)C(F)(F)C(F)(F)C(F)(F)C(F)(F)C(F)(F)F)Nc1ccccc1-c1c2nc(c(-c3ccccc3NC(=O)NC(=O)C(F)(F)C(F)(F)C(F)(F)C(F)(F)C(F)(F)C(F)(F)C(F)(F)F)c3ccc([nH]3)c(-c3ccccc3NC(=O)NC(=O)C(F)(F)C(F)(F)C(F)(F)C(F)(F)C(F)(F)C(F)(F)C(F)(F)F)c3nc(c(-c4ccccc4NC(=O)NC(=O)C(F)(F)C(F)(F)C(F)(F)C(F)(F)C(F)(F)C(F)(F)C(F)(F)F)c4ccc1[nH]4)C=C3)C=C2 [host (10), 5,10,15,20-tetra-(2-ureaphenyl-pentadecafluoro-octanoyl) porphyrin]
colour change by UV-Vis spectrophotometric analysis ([1]; addition of PFOA): discernible colour change | colour change by UV-Vis spectrophotometric analysis ([1]; addition of PFOS): discernible colour change | Observations (Aqueous extraction tests; sensor 1.1 × 10^−6 M in DCM, H:G 1:500): Some colour change, | Observations (Aqueous extraction tests; sensor 2.2 × 10^−3 M in DCM, H:G 4:1): Strong colour change | Observations (Aqueous extraction tests; sensor 2.2 × 10^−4 M in DCM, H:G 2:5): Strong colour change | Observations (Aqueous extraction tests; sensor 2.2 × 10^−5 M in DCM, H:G 1:25): Strong colour change

O=C(O)C(F)(F)C(F)(F)C(F)(F)C(F)(F)C(F)(F)C(F)(F)C(F)(F)F [PFOA, Perfluorooctanoic acid]
logKo/w [2]: ca. 6.44

O=C(Nc1ccccc1-c1c2nc(c(-c3ccccc3NC(=O)C(F)(F)C(F)(F)C(F)(F)F)c3ccc([nH]3)c(-c3ccccc3NC(=O)C(F)(F)C(F)(F)C(F)(F)F)c3nc(c(-c4ccccc4NC(=O)C(F)(F)C(F)(F)C(F)(F)F)c4ccc1[nH]4)C=C3)C=C2)C(F)(F)C(F)(F)C(F)(F)F [host (11), α,α,α,α-5,10,15,20-tetra(2-(heptafluorobutanoylamino)phenyl) porphyrin]
K [3]: 1.19e+06 M⁻¹ | Absorbance @ 650 nm ([4]; host + one equivalent PFBA in dichloromethane): 0.113 | Absorbance @ 650 nm ([4]; host + one equivalent PFDA in dichloromethane): 0.0469 | Absorbance @ 650 nm ([4]; host + one equivalent PFDoDA in dichloromethane): 0.0519 | Absorbance @ 650 nm ([4]; host + one equivalent PFHpA in dichloromethane): 0.1009 | Absorbance @ 650 nm ([4]; host + one equivalent PFHxA in dichloromethane): 0.0967 | Absorbance @ 650 nm ([4]; host + one equivalent PFNA in dichloromethane): 0.0473 | Absorbance @ 650 nm ([4]; host + one equivalent PFOA in dichloromethane): 0.0977 | Absorbance @ 650 nm ([4]; host + one equivalent PFPeA in dichloromethane): 0.1125 | Absorbance @ 650 nm ([4]; host + one equivalent PFUnDA in dichloromethane): 0.0475 | ΔEHost-PFCA ([4]; host vs host + PFBA): 45.9 | ΔEHost-PFCA ([4]; host vs host + PFDA): 27.0 | ΔEHost-PFCA ([4]; host vs host + PFDoDA): 27.2 | ΔEHost-PFCA ([4]; host vs host + PFHpA): 43.2 | ΔEHost-PFCA ([4]; host vs host + PFHxA): 44.4 | ΔEHost-PFCA ([4]; host vs host + PFNA): 26.8 | ΔEHost-PFCA ([4]; host vs host + PFOA): 40.6 | ΔEHost-PFCA ([4]; host vs host + PFPeA): 45.8 | ΔEHost-PFCA ([4]; host vs host + PFUnDA): 30.5 | colorimetric response to all nine PFCAs [5]: strong colorimetric response | ΔE between host and lowest PFOA concentration [6]: 4 | 1H NMR response to addition of GenX [7]: showed shifts
